The record followed here is PMC12163684, “Gunacins: Novel Benzo[g]chromene Derivatives from the Fungus Exobasidium sp. and Their Potent Anti-Leishmania and Trypanosoma Activities” (ACS Omega, 2025).

Like-named read-outs stand apart in the source and are kept apart here.

Assay [1] has as its system Jurkat T-lymphocyte cell line. Description: Cytotoxicity, Hoechst 33258 staining and flow cytometry (FACS LSRII). The class given is cell-based. The conditions noted are these: 24 h incubation, flow cytometry, read-out: EC50 ± SEM Jurkat. As to the method:
To evaluate the cytotoxicity of the isolated compounds, the immortalized T-lymphocyte cell line Jurkat was cultured in 96-well polypropylene U-bottom plates at a density of approximately 2 × 10^5 cells per well in RPMI1640 medium, with a total volume of 300 μL per well. Cells cultured in RPMI1640 medium alone and in RPMI1640 medium with DMSO were used as negative controls. After 24 h of incubation with the isolated compounds, dissolved in 10 mM DMSO, the cells were washed with PBS solution containing 0.02% gelatin and 0.01% sodium azide. Following this, the cells were stained with the fluorescent dye Hoechst 33258 and analyzed by flow cytometry using a FACS LSRII instrument (BD Biosciences, San Jose, USA) and FlowJo 10 software (Tree Star, Ashland, USA). Initial assays were conducted at concentrations of 5, 25, 50, 100, and 125 μM, with subsequent measurements at concentrations adjusted based on the results of the initial assays, each performed in triplicate. EC50 values were determined using Quest Graph software and the dose–response four parameters regression model. The EC50 values were determined from three independent experiments.

Another assay has as its system RTL-W1 cell line. Description: Cell viability assay with fluorescent indicators AB, CFDA-AM and NR. The class given is cell-based, rainbow trout (Oncorhynchus mykiss). The conditions noted are these: Oncorhynchus mykiss, 24 h exposure, n.d. = activity not detected at highest tested concentration 150 μM. On the procedure: Cell viability assay was determined on cell line RTL-W1 (obtained from Eawag, Switzerland; liver tissue) of rainbow trout (Oncorhynchus mykiss) according to the modified procedure of Dayeh (2005). A combination of three fluorescent indicators, alamarBlue (AB), 5-carboxyfluorescein diacetate acetoxymethyl ester (CFDA-AM), and NR was used to assess different mechanisms of toxic action, evaluate the general cellular response and increase the sensitivity of the cytotoxicity tests. […] After 24 h of incubation in microculturing plates, the cells were exposed to concentration series of isolated compounds in 0.5% DMSO for another 24 h. After the exposition, the solutions were removed from individual wells followed by the washing step and the addition of 100 μL of a dye solution containing 0.625% AB and 0.4 μM CFDA-AM in […]. The cells were incubated at room temperature for 30 min, and the fluorescence was measured at excitation/emission wavelengths of 535/590 nm for the AB assay and 485/535 nm for the CFDA-AM assay. Afterward, the dye solution was removed, the cells were rinsed, and 100 μL of the NR solution was added (0.03 mg/mL in […]). After 60 min of incubation, the cells were rinsed twice, and NR was extracted from the cells using 150 μL of a solution consisting of 1% (v/v) glacial acetic acid in 50% (v/v) ethanol. The content of each well was repeatedly homogenized using a pipet, and the fluorescence was measured at excitation/emission wavelengths of 535/630 nm.

The test system of a further assay is T. b. brucei 427. The assay can be described thus: Anti-trypanosomal activity, resazurin (AB assay), bloodstream form. The class given is cell-based. As to conditions: Trypanosoma brucei, 72 h, axenic, 48 h + 24 h resazurin. On the procedure:
(§1) The bloodstream forms of T. b. gambiense LiTat 1.3, T. b. brucei 427, and T. b. evansi AnTat 3/3 were grown in HMI-11 medium pH 7.3 supplemented with 36 mM sodium bicarbonate, 100 U/mL penicillin/streptomycin, and 10% fetal bovine serum at 37 °C and 5% CO2. The bloodstream form of Trypanosoma congolense IL3000 (generous gift from Liam Morrison) was cultured in TcBSF-1 medium pH 7.3 supplemented with 26 mM sodium bicarbonate, 25 mM HEPES, 5.5 mM glucose, 1 mM sodium pyruvate, 0.04 mM adenosine, 0.1 mM hypoxanthine, 0.02 mM thymidine, 0.02 mM bathocuproine, 2 mM L-glutamine, 0.2 mM 2-mercaptoethanol, 100 U/ml penicillin/streptomycin, and 20% goat serum New Zealand origin (Gibco) at 34 °C, 5% CO2. The assay for anti-trypanosomal activity was performed using the resazurin sodium salt dye (AB Assay) according to the published protocol in a 96-well plate format. Parasites at a number of 5 × 10^3 per well (T. b. brucei and T. b. gambiense) or 1 × 10^4 per well (T. b. evansi) were incubated with different drug concentrations (2-fold serial dilutions) in a volume of 200 μL of the medium. Medium with 1% DMSO (the highest concentration of the solvent used in the assay) was used to confirm no effect of the solvent on the cell growth. The plates were incubated for 48 h at the appropriate temperature. Then, 20 μL of resazurin sodium salt solution (0.125 mg/mL in 1× PBS, pH 7. 4) was added to each well, and the cells were incubated for another 24 h under the same conditions. The fluorescence signal was quantified using a Tecan Infinite M200 plate reader at excitation and emission wavelengths of 560 and 590 nm, respectively. The EC50 values were calculated using GraphPad Prism 9.5.1 by nonlinear regression with a variable slope. Each EC50 value is the mean ± standard error of the mean of three separate experiments performed in duplicate.
Background: Resazurin is reduced to fluorescent resorufin, in cell work by metabolically active cells.

The subject of assay [2] is Trypanosoma congolense IL3000. Described as above. The class given is cell-based. As to conditions: 72 h, axenic, 48 h + 24 h resazurin, read-out: EC50 T. congolense. As to the method: as §1
Assay [3] relates to L. mexicana (MNYC/BZ/1962/M379) promastigote. Description: Anti-Leishmania activity, AB assay, axenic promastigotes. The class given is cell-based. On the procedure: (§2) Promastigote stages of L. mexicana (MNYC/BZ/1962/M379), a generous gift from Vyacheslav Yurchenko, were cultured in M199 medium pH 7.4 supplemented with 2 μg/mL biopterin, 2 μg/mL hemin, 25 mM HEPES, 100 U/mL penicillin/streptomycin, and 10% heat-inactivated FBS (BioSera) pH 7.4 at 25 °C. The amastigotes were differentiated in vitro from late log/stationary promastigote cultures and cultivated in Schneider’s Drosophila Medium (SIM) at pH 5.5, supplemented with 1.5 μg/mL hemin, 100 U/mL penicillin/streptomycin, and 20% heat-inactivated FBS (BioSera) at pH 5.5, at 32 °C, and 5% CO2. Following a three-day period, the promastigotes underwent a transformation into amastigotes, which were then maintained in SIM.
(§3) To estimate the EC50, the AB assay, as previously described, was employed. The results are expressed as EC50, representing the dose of the compound required to inhibit cellular growth by 50%. Each EC50 value is the mean ± the standard error of the mean derived from at least three separate experiments, each performed in duplicate.

In assay [4] the test system is L. mexicana (MNYC/BZ/1962/M379) amastigote. Description: Anti-Leishmania activity, AB assay, axenic amastigotes. The class given is cell-based. As to the method: as §2, §3
[5] abbreviates: Alamar Blue, cellular metabolic activity, read-out: EC50 ± SEM RTL-W1 (AB).
Where [6] appears, read: CFDA-AM, cell membrane integrity, read-out: EC50 ± SEM RTL-W1 (CFDA).
Where [7] appears, read: Neutral Red, lysosomal membrane integrity, read-out: EC50 ± SEM RTL-W1 (NR).

`COc1cc(O)c2c(c1)C(=O)C1=C(C2=O)[C@@H](OC(C)=O)[C@@H](O)[C@@H](C)O1` [Compound 1, (2R,3S,4R)-3,6-dihydroxy-8-methoxy-2-methyl-5,10-dioxo-3,4,5,10-tetrahydro-2H-benzo[g]chromen-4-yl acetate]: the EC50 in assay [1] was 1.7 ± 0.1 µM; in assay [1] (Homo sapiens, Jurkat, 24 h) it was around 1.5 µM; in the assay with RTL-W1 cell line (setting [5]), 0.5 µM; in the assay on RTL-W1 cell line (setting [6]) it was 0.8 ± 0.1 µM; with RTL-W1 cell line (setting [7]) it was 0.3 µM; with T. b. brucei 427, 0.06 µM. Also, the EC50 in assay [2] came out at 0.02 µM; in assay [3] it was 0.22 µM; in assay [4], 0.01 µM.
Consider `COc1cc(O)c2c(c1)C(=O)C1=C(C[C@@H](OC(C)=O)[C@@H](C)O1)C2=O` [Compound 7, (2R,3R)-6-hydroxy-8-methoxy-2-methyl-5,10-dioxo-3,4,5,10-tetrahydro-2H-benzo[g]chromen-3-yl acetate], for which the EC50 in assay [1] (Homo sapiens, Jurkat, 24 h) was 93.2 ± 5.9 µM; with T. b. brucei 427, 0.9 µM; in assay [2], 2.4 µM; in assay [3], 3.6 µM; in assay [4], 2.5 µM.
For the molecule `COc1cc(O)c2c(c1)C(=O)C1=C(C2=O)[C@@H](O)[C@@H](OC(C)=O)[C@@H](C)O1` [Compound 5, (2R,3R,4R)-4,6-dihydroxy-8-methoxy-2-methyl-5,10-dioxo-3,4,5,10-tetrahydro-2H-benzo[g]chromen-3-yl acetate], the EC50 in assay [1] was 1.6 ± 0.1 µM; in assay [1] (Homo sapiens, Jurkat, 24 h), around 1.5 µM; with RTL-W1 cell line (setting [5]), 2.5 ± 0.3 µM; in the assay on RTL-W1 cell line (setting [6]), 2.1 ± 0.1 µM; with RTL-W1 cell line (setting [7]) it was 0.9 ± 0.1 µM; in the assay on T. b. brucei 427, 0.06 µM. The figures for the EC50 in assay [2], in assay [3] and in assay [4] were 0.02 µM, 0.24 µM and 0.01 µM, respectively.
With `COc1cc(O)c2c(c1)C(=O)C1=C(C2=O)[C@H](O)[C@@H](O)[C@@H](C)O1` (relative stereo) [Compound 3, (2R,3R,4S)-3,4,6-trihydroxy-8-methoxy-2-methyl-3,4-dihydro-2H-benzo[g]chromene-5,10-dione], the EC50 in assay [1] (Homo sapiens, Jurkat, 24 h) came to 16.5 ± 1.3 µM; in the assay with T. b. brucei 427, 4.3 µM; in assay [2], 5.8 µM; in assay [3], 8.6 µM; in assay [4], 5.6 µM.

For orientation: EC50 means the midpoint of the concentration-response curve.
